Measured values from patent US6642217B2, “Triterpenes having human antifungal and antiyeast activity” (Naturtek, LLC, priority 2000, dated 2003).

Columns and labels:
[1] = test system: Epidermophyton floccosum; test: Summary of anti-fungal assays (direct addition, agar dilution, liquid culture); type: cell-based; settings: stated in words (Tables 1a/1b, text to Table 5)
Method: (§1) This example summarizes the results of various other assays of the anti-fungal activity of betulin derivatives. Table 5 summarizes results using different assay methods—direct addition, agar dilution, and direct addition to liquid culture, as disclosed in the previous three Examples. In some cases, only one type of assay was done with a compound. In other cases, the compound was tested by multiple assays.

[2] = test system: Trichophyton mentagrophyte; test: Agar dilution method, growth on Sabouraud dextrose agar slants; type: cell-based, Trichophyton mentagrophytes; set-up: key to Fungal growth: +++: Maximum Fungal Growth; ++: Moderate Fungal Growth; +: Minimum Fungal Growth; +/−: Very little Fungal Growth; −: No Fungal Growth; settings: 12th day after inoculation
Method: (§2) Agar dilution method. Sabouraud Dextrose Agar (Difco Laboratories, Michigan) was prepared according to the manufacturer's instructions. Five ml was dispensed in a 100×25 mm tube and autoclaved. To each tube containing 5.0 ml of liquid agar at 45° C., 0.5, 0.25, 0.12, or 0.063 ml of a DMSO solution of the compound was added to give the final indicated concentrations in Table 2. The agar was then solidified in slants. Fungal cultures were inoculated. The slants were incubated at 25-28° C. for 10-12 days, and the growth of the fungus was recorded every second day.

[3] = test system: Pityrosporum ovale; test: as above; type: cell-based; set-up: key: +++: Maximum Fungal Growth; ++: Moderate Fungal Growth; +: Minimum Fungal Growth; +/−: Very little Fungal Growth; −: No Fungal Growth; settings: 12th day after inoculation
Method: as §2

[4] = test system: Microsporum canis; test: as above; type: cell-based; set-up: key: +++: Maximum Fungal Growth; ++: Moderate Fungal Growth; +: Minimum Fungal Growth; +/−: Very little Fungal Growth; −: No Fungal Growth; settings: 12th day after inoculation
Method: as §2

[5] = test system: Trichophyton rubrum; test: as above; type: cell-based; set-up: key: +++: Maximum Fungal Growth; ++: Moderate Fungal Growth; +: Minimum Fungal Growth; +/−: Very little Fungal Growth; −: No Fungal Growth; settings: 12th day after inoculation
Method: as §2

[6] = test system: Microsporum gypseum; test: as above; type: cell-based; set-up: key: +++: Maximum Fungal Growth; ++: Moderate Fungal Growth; +: Minimum Fungal Growth; +/−: Very little Fungal Growth; −: No Fungal Growth; settings: 12th day after inoculation
Method: as §2

[7] = test system: Trichophyton tonsuran; test: as above; type: cell-based, Trichophyton tonsurans; set-up: key: +++: Maximum Fungal Growth; ++: Moderate Fungal Growth; +: Minimum Fungal Growth; +/−: Very little Fungal Growth; −: No Fungal Growth; settings: 12th day after inoculation
Method: as §2

[8] = test system: Epidermophyton floccosum; test: as above; type: cell-based; set-up: key to Fungal growth: +++: Maximum Fungal Growth; ++: Moderate Fungal Growth; +: Minimum Fungal Growth; +/−: Very little Fungal Growth; −: No Fungal Growth; settings: 12th day after inoculation
Method: as §2

[9] = test system: Microsporum audouinni; test: as above; type: cell-based, Microsporum audouinii; set-up: key: +++: Maximum Fungal Growth; ++: Moderate Fungal Growth; +: Minimum Fungal Growth; +/−: Very little Fungal Growth; −: No Fungal Growth; settings: 12th day after inoculation
Method: as §2

[10] = test system: Microsporum audouinii; test: Summary of anti-fungal assays (direct addition, agar dilution, liquid culture); type: cell-based; settings: stated in words (Tables 1a/1b, text to Table 5)
Method: as §1

[11] = test system: Trichophyton tonsurans; test: as above; type: cell-based; settings: stated in words (Tables 1a/1b, text to Table 5)
Method: as §1

[12] = test system: Microsporum audouinni; test: Direct addition method, solid compound in Sabouraud dextrose agar; type: cell-based, Microsporum audouinii; set-up: key to Fungal growth: +++: Maximum Fungal Growth; ++: Moderate Fungal Growth; +: Minimum Fungal Growth; +/−: Very little Fungal Growth; −: No Fungal Growth
Method: (§3) Direct addition method. Sabouraud dextrose agar was prepared according to the manufacturer's instructions and 5.0 ml was dispensed in each 100×25 mm tube. The tubes were autoclaved. To each tube containing 5.0 ml of liquid agar at 45° C., 20 mg of solid test compound was added, to give a final concentration of 4 mg/ml. The agar was solidified in slants. The fungal cultures were then innoculated. The slants were incubated at 25-28 ° C. for 10-12 days, and the growth of the fungus was recorded every second day. The results in Table 2 indicate growth at the 12th day of inoculation.

[13] = test system: Pityrosporum ovale; test: Direct addition into the Pityrosporum agar; type: cell-based; set-up: key to Pityrosporum ovale growth: +++: Maximum Growth; ++: Moderate Growth; +: Minimum Growth; +/−: Very Little Growth; −: No Growth; settings: 4 mg/ml in the agar; 18 hours after inoculation
Method: as §3, with “The slants were incubated at 25-28 ° C. for 10-12 days, and the growth of the fungus was recorded every second day. The results in Table 2 indicate growth at the 12th day of inoculation.” left out

[14] = test system: Pityrosporum ovale; test: Direct addition method, solid compound in Sabouraud dextrose agar; type: cell-based; set-up: key: +++: Maximum Fungal Growth; ++: Moderate Fungal Growth; +: Minimum Fungal Growth; +/−: Very little Fungal Growth; −: No Fungal Growth; settings: 4 mg/mL of agar; 12th day after inoculation
Method: as §3

[15] = test system: Microsporum canis; test: as above; type: cell-based; set-up: key: +++: Maximum Fungal Growth; ++: Moderate Fungal Growth; +: Minimum Fungal Growth; +/−: Very little Fungal Growth; −: No Fungal Growth; settings: 4 mg/mL of agar; 12th day after inoculation
Method: as §3

[16] = test system: Trichophyton rubrum; test: as above; type: cell-based; set-up: key: +++: Maximum Fungal Growth; ++: Moderate Fungal Growth; +: Minimum Fungal Growth; +/−: Very little Fungal Growth; −: No Fungal Growth; settings: 4 mg/mL of agar; 12th day after inoculation
Method: as §3

[17] = test system: Epidermophyton floccosum; test: as above; type: cell-based; set-up: key: +++: Maximum Fungal Growth; ++: Moderate Fungal Growth; +: Minimum Fungal Growth; +/−: Very little Fungal Growth; −: No Fungal Growth; settings: 4 mg/mL of agar; 12th day after inoculation
Method: as §3

C=C(C)C1CCC2(COC(=O)COCC(=O)O)CCC3(C)C(CCC4C5(C)CCC(O)C(C)(C)C5CCC43C)C12 (stereo not drawn) [Betulin-28-diglycolate]
Active against Epidermophyton floccosum [1]: against Epidermophyton floccosum

C=C(C)C1CCC2(COC(=O)c3ccccc3C(=O)O)CCC3(C)C(CCC4C5(C)CCC(O)C(C)(C)C5CCC43C)C12 (stereo not drawn) [Betulin-28-phthalate]
Fungal growth ([2]; 12.5 μg/ml): +++
Fungal growth ([2]; 25 μg/ml): ++
Fungal growth ([2]; 50 μg/ml): +
Fungal growth ([2]; 100 μg/ml): −
Fungal growth ([3]; 12.5 μg/ml): +++
Fungal growth ([3]; 25 μg/ml): +++
Fungal growth ([3]; 50 μg/ml): ++
Fungal growth ([3]; 100 μg/ml): −
Fungal growth ([4]; 12.5 μg/ml): ++
Fungal growth ([4]; 25 μg/ml): +
Fungal growth ([4]; 50 μg/ml): −
Fungal growth ([4]; 100 μg/ml): −
Fungal growth ([5]; 12.5 μg/ml): ++
Fungal growth ([5]; 25 μg/ml): +
Fungal growth ([5]; 50 μg/ml): +
Fungal growth ([5]; 100 μg/ml): −
Fungal growth ([6]; 12.5 μg/ml): +++
Fungal growth ([6]; 25 μg/ml): ++
Fungal growth ([6]; 50 μg/ml): ++
Fungal growth ([6]; 100 μg/ml): −
Fungal growth ([7]; 12.5 μg/ml): ++
Fungal growth ([7]; 25 μg/ml): +
Fungal growth ([7]; 50 μg/ml): −
Fungal growth ([7]; 100 μg/ml): −
Fungal growth ([8]; 12.5 μg/ml): +++
Fungal growth ([8]; 25 μg/ml): ++
Fungal growth ([8]; 50 μg/ml): +
Fungal growth ([8]; 100 μg/ml): −
Fungal growth ([9]; 12.5 μg/ml): ++
Fungal growth ([9]; 25 μg/ml): +
Fungal growth ([9]; 50 μg/ml): −
Fungal growth ([9]; 100 μg/ml): −
Active against Microsporum audouinii [10]: Microsporum audouinii
Active against Trichophyton tonsurans [11]: Trichophyton tonsurans

C=C(C)C1CCC2(COC(=O)CCC(=O)O)CC[C@@]3(C)C(CCC4[C@@]5(C)CCC(O)C(C)(C)C5CC[C@]43C)C12 (stereo partly drawn) [Betulin-28-succinate]
Fungal growth ([2]; 125 μg/ml): ++
Fungal growth ([2]; 250 μg/ml): +
Fungal growth ([2]; 500 μg/ml): +
Fungal growth ([2]; 1000 μg/ml): −
Fungal growth ([3]; 125 μg/ml): +++
Fungal growth ([3]; 250 μg/ml): +++
Fungal growth ([3]; 500 μg/ml): +++
Fungal growth ([3]; 1000 μg/ml): ++
Fungal growth ([4]; 125 μg/ml): +
Fungal growth ([4]; 250 μg/ml): +
Fungal growth ([4]; 500 μg/ml): +
Fungal growth ([4]; 1000 μg/ml): −
Fungal growth ([5]; 125 μg/ml): +
Fungal growth ([5]; 250 μg/ml): +
Fungal growth ([5]; 500 μg/ml): +
Fungal growth ([5]; 1000 μg/ml): −
Fungal growth ([6]; 125 μg/ml): ++
Fungal growth ([6]; 250 μg/ml): +
Fungal growth ([6]; 500 μg/ml): +
Fungal growth ([6]; 1000 μg/ml): −
Fungal growth ([12]; 4 mg/mL of agar, 12th day after inoculation): −
best anti-fungal or anti-yeast activity by the direct addition method ([12]; against Microsporum audouinii): against Microsporum audouinii
Fungal growth ([7]; 125 μg/ml): ++
Fungal growth ([7]; 250 μg/ml): +
Fungal growth ([7]; 500 μg/ml): +
Fungal growth ([7]; 1000 μg/ml): −
Fungal growth ([8]; 125 μg/ml): ++
Fungal growth ([8]; 250 μg/ml): +
Fungal growth ([8]; 500 μg/ml): +
Fungal growth ([8]; 1000 μg/ml): −
Pityrosporum ovale growth [13]: +
Fungal growth [14]: −
Fungal growth [15]: +
Fungal growth [16]: +
Fungal growth [17]: −
Fungal growth ([9]; 125 μg/ml): +
Fungal growth ([9]; 250 μg/ml): +/−
Fungal growth ([9]; 500 μg/ml): −
Fungal growth ([9]; 1000 μg/ml): −
Active against Microsporum audouinii [10]: Microsporum audouinii
